Test results from US10278957B2, “Opioid agonist peptides and uses thereof” (Protagonist Therapeutics, Inc., priority 2017, dated 2019).
Square brackets hold non-standard residues; d marks the D form. Peptide text beside a SMILES is read from it. Dmt = Cc1cc(O)cc(C)c1C[C@H](N)C(=O)O; β3hF = N[C@H](CC(=O)O)Cc1ccccc1

Tests used:
[1] = target: T1, μ-opioid receptor (MOR) (Homo sapiens, UniProt P35372); assay: MOR agonist cAMP assay (HitHunter cAMP, forskolin-stimulated); format: cell-based
T1 construct: host or cells: cAMP Hunter CHO-K1 OPRM1 Gαi cell line
T1 sequence (P35372 whole entry): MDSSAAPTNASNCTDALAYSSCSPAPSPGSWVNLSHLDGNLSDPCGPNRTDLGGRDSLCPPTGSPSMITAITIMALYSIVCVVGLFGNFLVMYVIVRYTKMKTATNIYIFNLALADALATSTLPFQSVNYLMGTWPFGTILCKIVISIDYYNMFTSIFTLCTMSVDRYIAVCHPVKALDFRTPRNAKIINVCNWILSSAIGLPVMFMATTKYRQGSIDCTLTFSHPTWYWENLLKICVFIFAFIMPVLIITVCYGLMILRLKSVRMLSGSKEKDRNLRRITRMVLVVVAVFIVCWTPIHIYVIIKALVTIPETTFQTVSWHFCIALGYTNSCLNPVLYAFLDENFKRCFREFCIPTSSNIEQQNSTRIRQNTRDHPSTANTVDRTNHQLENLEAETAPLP
Summary of the method: (§1)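 CHO-K1 Gαi cells expressing OPRM1 or OPRD1 were exposed 30 min at 37° C to 11-point threefold agonist dilutions, in duplicate, with 20 uM forskolin final. cAMP quantified by EFC chemiluminescent competitive immunoassay against cAMP standards. EC50 by four-parameter Hill nonlinear regression.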

[2] = target: T2, δ-opioid receptor (DOR) (Homo sapiens, UniProt P41143); assay: DOR agonist cAMP assay (HitHunter cAMP, forskolin-stimulated); format: cell-based
T2 construct: host or cells: cAMP Hunter CHO-K1 OPRD1 Gαi cell line
T2 sequence (P41143 whole entry): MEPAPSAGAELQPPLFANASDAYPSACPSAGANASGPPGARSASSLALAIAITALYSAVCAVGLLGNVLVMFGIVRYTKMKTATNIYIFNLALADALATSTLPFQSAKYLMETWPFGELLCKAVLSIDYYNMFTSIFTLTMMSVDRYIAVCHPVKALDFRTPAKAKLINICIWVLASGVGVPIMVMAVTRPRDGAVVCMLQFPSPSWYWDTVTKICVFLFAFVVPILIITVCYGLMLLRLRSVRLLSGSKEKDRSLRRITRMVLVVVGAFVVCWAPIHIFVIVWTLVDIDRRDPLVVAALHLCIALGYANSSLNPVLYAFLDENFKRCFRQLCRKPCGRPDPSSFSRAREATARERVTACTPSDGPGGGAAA
Summary of the method: as §1

[3] = SGF assay (stability in simulated gastric fluid); format: in vitro ADME; conditions: pig, simulated gastric fluid (SGF) with porcine pepsin, pH 2, pepsin, 37° C.
Method: SGF was prepared by adding 20 mg NaCl, 32 mg porcine pepsin (MP Biochemicals, catalog 02102599), and 70 μl HCl to 10 ml water (final pH=2). Aliquots of SGF (0.5 ml each) were pre-warmed at 37° C. To start the reaction, 1 μl of opioid agonist peptide stock solution (10 mM in DMSO) was added to 0.5 ml SGF and thoroughly mixed such that the final peptide concentration was 20 μM. The reactions were incubated at 37° C. with gentle shaking.
At each timepoint (0, 15, 30, 60 min) 50 µl aliquots were removed and added to 200 ul of acetonitrile containing 0.1% formic acid to quench the reaction. Samples were stored at 4° C. until the end of the experiment and centrifuged at 10,000 rpm for 5 minutes. Aliquots of the supernatant were removed, diluted 1:1 into distilled water containing internal standard, and analyzed by LCMS/MS. The percent of the opioid agonist peptide remaining at each timepoint was calculated based on the peak area response ratio of the opioid agonist peptide to the internal standard. Time 0 was set to 100%, and all later timepoints were calculated relative to time 0. Half-lives were calculated by fitting to a first-order exponential decay equation using GraphPad.

[4] = SIF assay (stability in simulated intestinal fluid); format: in vitro ADME; conditions: simulated intestinal fluid (SIF) with pancreatin; simulated intestinal fluid, pH 6.8, pancreatin, 37° C., 20 μM
Method: SIF was prepared by adding 6.8 g of monobasic potassium phosphate and 10.0 g of pancreatin to 1.0 L of water. After dissolution, the pH was adjusted to 6.8 using NaOH. DMSO stocks (2 mM) were prepared for each of the opioid agonist peptides. Aliquots of the DMSO solutions were dosed into […], each containing 0.5 mL of SIF, which was pre-warmed to 37° C. The final opioid agonist peptide concentration was 20 μM. The vials were kept in a benchtop Thermomixer® for the duration of the experiment. At each timepoint (0, 5, 10, 20, 40, 60, or 360 minutes or 24 hours), 1.0 mL of acetonitrile containing 1% formic acid was added to one vial to terminate the reaction. Samples were stored at 4° C. until the end of the experiment. After the final timepoint was sampled, the tubes were mixed and then centrifuged at 3,000 rpm for 10 minutes. Aliquots of the supernatant were removed, diluted 1:1 into distilled water containing an internal standard, and analyzed by LCMS/MS. The percent of the opioid agonist peptide remaining at each timepoint was calculated based on the peak area response ratio of opioid agonist peptide to the internal standard. Time 0 was set to 100%, and all later timepoints were calculated relative to time 0. Half-lives were calculated by fitting to a first-order exponential decay equation using Graph pad.

[5] = tested on: visceral pain (writhing); assay: Acetic Acid or Acetylcholine Writhing Assay; format: in vivo; conditions: PO; FIGS. 3A and 3B
Method: Animals were fasted overnight prior to the start of the assay. Test and control article doses, ranging from 3-50 mg/kg, were administered (PO) followed by an IP injection of acetic acid (1.0%) or acetylcholine (10 mg/kg), and immediately placed in a viewing chamber. […] Writhing (abdominal constriction) was defined as a contraction of the abdominal musculature accompanied by arching of the back and extension of the limbs. Latency to first writhe and total number of writhes were recorded. Test articles included oral eluxadoline and two illustrative opioid peptides disclosed herein, Peptide A and Peptide D; and control articles included loperamide and morphine

SMILES	EC50 [1] [nM]	EC50 [2] [nM]	half-life at 20 μM [3] [h]	half-life at 20 μM [4] [h]	effect on pain (writhing study) [5]
Cc1cc(C(N)=O)cc(C)c1C[C@H](N)C(=O)N[C@H](C)C(=O)NCC(=O)N[C@H](CC(=O)N(C)[C@H](C(=O)O)c1ccccc1)Cc1ccccc1 [compound 99]	< 1	< 1	> 24	> 24	
CCCC[C@@H](C(=O)O)N(C)C(=O)C[C@H](Cc1ccccc1)NC(=O)CNC(=O)[C@@H](C)NC(=O)[C@@H](N)Cc1c(C)cc(C(N)=O)cc1C [compound 101]	1 to 10	< 1	> 24	> 24	
Cc1cc(C(N)=O)cc(C)c1C[C@H](N)C(=O)N[C@H](C)C(=O)NCC(=O)N[C@H](CC(=O)N(C)[C@@H](Cc1ccc(O)cc1)C(=O)O)Cc1ccccc1 [compound 102]	< 1	< 1	> 24	> 24	
Cc1cc(O)cc(C)c1C[C@H](N)C(=O)N[C@H](C)C(=O)NCC(=O)N[C@H](CC(=O)N(C)[C@@H](C)C(=O)O)Cc1ccccc1 [compound 111]	< 1	< 1	> 24	> 24	
Cc1cc(O)cc(C)c1C[C@H](N)C(=O)N[C@H](C)C(=O)NCC(=O)N[C@H](CC(=O)N(CC(N)=O)Cc1ccccc1)Cc1ccccc1 [compound 118]	< 1	< 1	> 24	> 24	
CCCC[C@@H](C(=O)O)N(C)C(=O)C[C@H](Cc1ccccc1C)NC(=O)CNC(=O)[C@@H](C)NC(=O)[C@@H](N)Cc1c(C)cc(O)cc1C [compound 140]	< 1	< 1	6 to 24	6 to 24	
Cc1cc(O)cc(C)c1C[C@H](N)C(=O)N[C@H](C)C(=O)NCC(=O)N[C@H](CC(=O)N(C)[C@H](C(=O)O)C(C)C)Cc1ccccc1 [compound 161]	< 1	< 1	> 24	> 24	
CCCC[C@@H](C(=O)O)N(C)C(=O)C[C@H](Cc1ccc(C)cc1)NC(=O)CNC(=O)[C@@H](C)NC(=O)[C@@H](N)Cc1c(C)cc(C(N)=O)cc1C [compound 165]	< 1	< 1	> 24	0.167 to 6	
CCCC[C@@H](C(=O)O)N(C)C(=O)C[C@H](Cc1ccc(F)cc1)NC(=O)CNC(=O)[C@@H](C)NC(=O)[C@@H](N)Cc1c(C)cc(C(N)=O)cc1C [compound 166]	< 1	< 1	> 24	> 24	
CCCC[C@@H](C(=O)O)N(C)C(=O)C[C@H](Cc1cccc(Cl)c1)NC(=O)CNC(=O)[C@@H](C)NC(=O)[C@@H](N)Cc1c(C)cc(C(N)=O)cc1C [compound 167]	< 1	< 1	> 24	> 24	
Cc1cc(O)cc(C)c1C[C@H](N)C(=O)N[C@H](CC(=O)O)C(=O)NCC(=O)N[C@H](CC(=O)NCC(N)=O)Cc1ccccc1 [compound 179] (H-[Dmt][dD]G[β3hF]G-NH2)	< 1	< 1	> 24	> 24	
COc1ccc(CN(C(=O)[C@@H](N)Cc2c(C)cc(C(N)=O)cc2C)[C@@H](C)c2ncc(-c3ccccc3)[nH]2)cc1C(=O)O [eluxadoline, reference compound]					little effect on pain
